Measurements as given in patent US10246421B2, “Indazolyl- and indolyl-benzamide derivatives” (ESANEX, INC., priority 2014, dated 2019).

Tests used:
Assay type in all cases: cell-based
Her2 = experiment: AU565 imaging assay, Her2 degradation; details: Homo sapiens, 24 hours treatment
Description: (§1) Cells of multiple human tumor lines were plated in Packard Viewplate-96, incubated overnight, and then treated with test compound for 24 hours. Following treatment, cell monolayers were fixed using standard methods and treated with antibodies targeted to the indicated Hsp90 clients. Primary antibodies were detected using a fluoroscene isothiocyanate (FITC)-conjugated anti-mouse antibody and a tetramethyl rhodamine isothiocyanate (TRITC)-conjugated anti-rabbit antibody. Deoxyribonucleic acid was stained and images were obtained using the compartmental analysis algorithm on a Cellomics Array scan 4.5 according to manufacturer instructions. Average intensities for vehicle control and treated wells were compared with test compound-treated cells to determine the 50% efficacious concentration (EC50) values. This methodology was augmented with an alternative method of immune-detection for p-Akt levels. Luminex detection of p-Akt used to directly assay the client effect, Akt, as well as the competency of the signaling cascade, as indicated by phosphorylation of S6 kinase.

HSP70 = experiment: A375 imaging assay, HSP70 induction; details: Homo sapiens, A-375, 24 hours treatment
Description: as §1

A375 = experiment: Cell proliferation assay, A375; details: Homo sapiens, A-375
Description: (§2) A panel of cancer cell lines may be obtained from the DCTP Tumor Repository, National Cancer Institute (Frederick, Md.) or ATCC (Rockville, Md.). Cell cultures are maintained in Hyclone RPMI 1640 medium (Logan, Utah) supplemented with 10% fetal bovine serum and 20 mM HEPES buffer, final pH 7.2, at 37° C. with a 5% CO2 atmosphere. Cultures are maintained at sub-confluent densities. Human umbilical vein endothelial cells (HUVEC) are purchased from Clonetics, a division of Cambrex (Walkersville, Md.). Cultures are established from cryopreserved stocks using Clonetics EGM-2 medium supplemented with 20 mM HEPES, final pH 7.2, at 37° C. with a 5% CO2 atmosphere.
(§3) For proliferation assays, cells are seeded with the appropriate medium into 96 well plates at 1,000-2,500 cells per well, depending on the cell line, and are incubated overnight. The following day, test compound, DMSO solution (negative control), or Actinomycin D (positive control) is added to the appropriate wells as 10× concentrated stocks prepared in phosphate buffered saline. The cell plates are then incubated for an additional 2-5 days, depending on the cell line, to allow proliferation to occur. To measure cell density, 50 μL of WST-1 solution (Roche Applied Science, IN) diluted 1:5 in phosphate buffered saline is added to each well, and the cells incubated for an additional 1-5 hrs, again depending on the cell line. Optical density is determined for each well at […] using a Tecan GeniosPro plate reader (RTP, NC). The percentage of cell growth is determined by comparing the cell growth in the presence of test compounds to the cells treated with DMSO vehicle (control, 100% growth) and cells treated with Actinomycin D (10 μM, 0% growth).
(§4) Immediately after the WST-1 determination, the medium is removed from the cell lines, and the plates stored at −80° C. Using these assay plates, relative amounts of DNA in each well are determined using the Cyquant DNA assay kit from […] (Eugene, Oreg.) following the manufacturer's directions. Results for each compound treatment are compared to DMSO vehicle control (100%) and 10 μM Actinomycin D treated cells (0%).

PC-3 = experiment: Cell proliferation assay, PC-3; details: Homo sapiens
Description: as §2, §3, §4

NCI-H460 = experiment: Cell proliferation assay, NCI-H460; details: Homo sapiens
Description: as §2, §3, §4

K562 = experiment: Cell proliferation assay, K562; details: Homo sapiens
Description: as §2, §3, §4

pErk = experiment: AU565 imaging assay, pErk inhibition; details: Homo sapiens, 24 hours treatment
Description: as §1

pS6 = experiment: A375 imaging assay, pS6 inhibition; details: Homo sapiens, A-375, 24 hours treatment
Description: as §1

Structure (SMILES)	EC50 (Her2)	EC50 (HSP70)	IC50 (A375)	IC50 (PC-3)	IC50 (NCI-H460; NCI-H460 (Table 2B))	IC50 (K562)	EC50 (pErk)	EC50 (pS6)	IC50 (NCI-H460; NCI-H46 (Table 2A))
Cc1nn(-c2cc(F)c(C(N)=O)c(NC3CCCCC3)c2)c2c1C=CC(C)(C)C2 [EX-010, 2-(cyclohexylamino)-6-fluoro-4-(3,6,6-trimethyl-6,7-dihydro-1H-indazol-1-yl)benzamide]	–	–	2260 nM	3310 nM	–	48000 nM	–	–	5080 nM
Cc1nn(-c2cc(F)c(C(N)=O)c(NC3CCCCC3)c2)c2c1CCC(C)(C)C2 [EX-011, 2-(cyclohexylamino)-6-fluoro-4-(3,6,6-trimethyl-4,5,6,7-tetrahydro-1H-indazol-1-yl)benzamide]	–	–	9520 nM	5120 nM	–	4280 nM	–	–	8590 nM
Cc1nn(-c2cc(F)c(C(N)=O)c(NC3CCOC3)c2)c2c1C=CC(C)(C)C2 (stereo not drawn) [EX-012, 2-fluoro-6-(tetrahydrofuran-3-ylamino)-4-(3,6,6-trimethyl-6,7-dihydro-1H-indazol-1-yl)benzamide]	205 nM	45.4 nM	242 ± 192 nM	< 80 nM	1380 ± 425 nM	172 ± 72.3 nM	322 nM	73.8 nM	–
Cc1nn(-c2cc(F)c(C(N)=O)c(N[C@@H]3CCCC[C@H]3O)c2)c2c1C=CC(C)(C)C2 [EX-014, 2-fluoro-6-((1R,2R)-2-hydroxycyclohexylamino)-4-(3,6,6-trimethyl-6,7-dihydro-1H-indazol-1-yl)benzamide]	329 nM	464 nM	630 ± 106 nM	364 ± 7.8 nM	1370 ± 325 nM	363 ± 57.4 nM	457 nM	115 nM	–
Cc1nn(-c2cc(F)c(C(N)=O)c(N[C@H]3CCCC[C@@H]3O)c2)c2c1CCC(C)(C)C2 [EX-015, 2-fluoro-6-((1S,2S)-2-hydroxycyclohexylamino)-4-(3,6,6-trimethyl-4,5,6,7-tetrahydro-1H-indazol-1-yl)benzamide]	667 nM	346 nM	448 ± 50.2 nM	344 ± 10.2 nM	1910 ± 513 nM	359 ± 42.4 nM	820 nM	241 nM	–
Cc1nn(-c2cc(F)c(C(N)=O)c(N[C@H]3CC[C@H](O)CC3)c2)c2c1C(C)CC(C)(C)C2 (stereo partly drawn) [EX-016, 2-fluoro-6-((1R,4R)-4-hydroxycyclohexylamino)-4-(3,4,6,6-tetramethyl-4,5,6,7-tetrahydro-1H-indazol-1-yl)benzamide]	–	–	10200 nM	6490 nM	–	6340 nM	–	–	6550 nM
CC1=CC(C)(C)Cc2c1c(C)nn2-c1cc(F)c(C(N)=O)c(N[C@H]2CC[C@H](O)CC2)c1 [EX-017, 2-fluoro-6-((1R,4R)-4-hydroxycyclohexylamino)-4-(3,4,6,6-tetramethyl-6,7-dihydro-1H-indazol-1-yl)benzamide]	–	–	2580 nM	1550 nM	–	1690 nM	–	–	2130 nM

The next compounds have a lower IC50 (A375) than those just listed; values first:

EC50 (Her2)	EC50 (HSP70)	IC50 (A375)	IC50 (PC-3)	IC50 (NCI-H460; NCI-H460 (Table 2B))	IC50 (K562)	EC50 (pErk)	EC50 (pS6)	IC50 (NCI-H460; NCI-H46 (Table 2A))	Structure (SMILES)
0.366 nM	0.092 nM	1 ± 0.466 nM	74.1 ± 70.6 nM	41.4 ± 18.4 nM	92.3 ± 32.7 nM	1.5 nM	4.3 nM	–	Cc1nn(-c2cc(F)c(C(N)=O)c(N[C@H]3CCC[C@@H]3O)c2)c2c1CCC(C)(C)C2 [EX-007, 2-fluoro-6-((1S,2S)-2-hydroxycyclopentylamino)-4-(3,6,6-trimethyl-4,5,6,7-tetrahydro-1H-indazol-1-yl)benzamide]
51 nM	54 nM	69.7 ± 9.3 nM	40.5 ± 7.9 nM	–	250 ± 77.5 nM	112 nM	59.1 nM	142 ± 59 nM	Cc1nn(-c2cc(F)c(C(N)=O)c(N[C@H]3CC[C@H](O)CC3)c2)c2c1C=CC(C)(C)C2 [EX-008, 2-fluoro-6-((1r,4r)-4-hydroxycyclohexylamino)-4-(3,6,6-trimethyl-6,7-dihydro-1H-indazol-1-yl)benzamide]
35.8 nM	37.2 nM	76 ± 43.1 nM	44.1 ± 6.1 nM	–	277 ± 81.8 nM	101 nM	28.5 nM	167 ± 22.4 nM	Cc1nn(-c2cc(F)c(C(N)=O)c(N[C@H]3CC[C@H](O)CC3)c2)c2c1CCC(C)(C)C2 [EX-009, 2-fluoro-6-((1r,4r)-4-hydroxycyclohexylamino)-4-(3,6,6-trimethyl-4,5,6,7-tetrahydro-1H-indazol-1-yl)benzamide]
329 nM	77.7 nM	176 ± 145 nM	160 ± 81.4 nM	3170 ± 791 nM	242 ± 118 nM	360 nM	156 nM	–	Cc1nn(-c2cc(F)c(C(N)=O)c(N[C@H]3CCOC3)c2)c2c1CCC(C)(C)C2 [EX-013, (S)-2-fluoro-6-(tetrahydrofuran-3-ylamino)-4-(3,6,6-trimethyl-4,5,6,7-tetrahydro-1H-indazol-1-yl)benzamide]
